In publication PMC9596378, “Discovery and molecular basis of subtype-selective cyclophilin inhibitors” (Nature Chemical Biology, 2022):
Where “and” joins values, the source holds several entries; their conditions need not be identical. Identical values can stand only once. Like-named read-outs stand apart in the source and are kept apart here.

Experiments:
Assay in all cases: Chymotrypsin coupled prolyl-isomerase assay
[1] = target: CypD (Homo sapiens, UniProt P30405); details: for selectivity for CypD against the remaining six cyclophilins / selectivity for CypD over CypA / selectivity for CypD over CypA and PPIL1 / selectivity for CypD over CypE and CypB: prolyl-isomerase IC50
Sequence of CypD (P30405 45-207): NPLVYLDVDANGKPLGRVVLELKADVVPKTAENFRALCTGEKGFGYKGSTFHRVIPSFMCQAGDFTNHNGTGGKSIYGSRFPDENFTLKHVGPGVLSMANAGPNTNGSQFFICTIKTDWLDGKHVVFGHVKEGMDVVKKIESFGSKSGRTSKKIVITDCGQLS

[2] = target: Cyp40 (Homo sapiens, UniProt Q08752)
Sequence of Cyp40 (Q08752 1-183): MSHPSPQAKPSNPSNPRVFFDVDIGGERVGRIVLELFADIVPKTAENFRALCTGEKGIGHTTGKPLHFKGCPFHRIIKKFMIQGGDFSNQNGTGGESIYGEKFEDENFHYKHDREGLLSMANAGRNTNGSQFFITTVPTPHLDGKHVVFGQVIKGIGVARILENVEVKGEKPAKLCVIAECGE
Summary of the method: (§1)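 Chymotrypsin-coupled cis–trans isomerization of Suc-AAPF-AMC (5 µM) catalysed by 5 nM cyclophilin, run cold (2–3 °C) at pH 7.3 with 5 min compound preincubation.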

[3] = target: T1, CypD R124A (Homo sapiens, UniProt P30405, R124A); assay type: biochemical; details: mutant CypD R124A; read-out: Mutant Cyclophilin Prolyl Isomerase Inhibition IC50 Values, CypD R124A
T1 construct: made in house; host or cells: E. coli BL21(DE3)
T1 sequence (P30405 45-207 R124A): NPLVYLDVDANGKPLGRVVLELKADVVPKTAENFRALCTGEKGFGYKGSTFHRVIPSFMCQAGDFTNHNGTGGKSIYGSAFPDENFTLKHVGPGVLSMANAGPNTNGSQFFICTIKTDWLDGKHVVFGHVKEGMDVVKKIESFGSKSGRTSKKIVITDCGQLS
Summary of the method: as §1

[4] = target: T2, CypD S123E (Homo sapiens, UniProt P30405, S123E); assay type: biochemical; details: prolyl-isomerase inhibition
T2 construct: made in house; host or cells: E. coli BL21(DE3)
T2 sequence (P30405 45-207 S123E): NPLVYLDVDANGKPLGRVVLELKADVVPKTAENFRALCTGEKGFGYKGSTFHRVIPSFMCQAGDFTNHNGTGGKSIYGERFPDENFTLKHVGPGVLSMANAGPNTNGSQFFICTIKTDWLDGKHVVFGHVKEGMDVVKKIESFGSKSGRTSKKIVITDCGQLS
Summary of the method: as §1

[5] = target: T3, CypD K118A (Homo sapiens, UniProt P30405, K118A); assay type: biochemical; details: prolyl-isomerase inhibition
T3 construct: made in house; host or cells: E. coli BL21(DE3)
T3 sequence (P30405 45-207 K118A): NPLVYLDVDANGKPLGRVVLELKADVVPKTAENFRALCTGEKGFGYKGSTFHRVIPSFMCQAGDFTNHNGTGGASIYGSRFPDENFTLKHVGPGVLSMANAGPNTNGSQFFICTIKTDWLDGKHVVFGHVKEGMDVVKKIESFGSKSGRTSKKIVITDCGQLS
Summary of the method: as §1

[6] = target: T4, CypD R124K (Homo sapiens, UniProt P30405, R124K); assay type: biochemical; details: mutant CypD R124K; read-out: Mutant Cyclophilin Prolyl Isomerase Inhibition IC50 Values, CypD R124K
T4 construct: made in house; host or cells: E. coli BL21(DE3)
T4 sequence (P30405 45-207 R124K): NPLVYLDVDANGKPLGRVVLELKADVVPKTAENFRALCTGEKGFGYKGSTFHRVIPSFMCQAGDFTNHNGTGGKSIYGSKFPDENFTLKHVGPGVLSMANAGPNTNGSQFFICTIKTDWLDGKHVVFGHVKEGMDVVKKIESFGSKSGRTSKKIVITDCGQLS
Summary of the method: as §1

[7] = target: T5, CypD K118E (Homo sapiens, UniProt P30405, K118E); assay type: biochemical; details: prolyl-isomerase inhibition
T5 construct: made in house; host or cells: E. coli BL21(DE3)
T5 sequence (P30405 45-207 K118E): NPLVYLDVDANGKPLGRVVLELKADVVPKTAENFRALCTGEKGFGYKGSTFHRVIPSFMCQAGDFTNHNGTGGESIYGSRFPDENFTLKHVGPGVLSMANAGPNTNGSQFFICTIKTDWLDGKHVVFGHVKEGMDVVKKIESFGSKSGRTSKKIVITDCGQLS
Summary of the method: as §1

[8] = target: T6, CypA E81S/K82R (Homo sapiens, UniProt P62937, E81S/K82R); assay type: biochemical; details: prolyl-isomerase inhibition; read-out: IC50 CypA E81S/K82R
T6 construct: Lane 12- SNA-CypA E81S/K82R (1-165);; His6 tag with TEV site (2BT vector); SNA remnant stays on the N-terminus (N, cleaved yes); made in house; host or cells: E. coli BL21(DE3)
T6 sequence (P62937 whole entry E81S/K82R): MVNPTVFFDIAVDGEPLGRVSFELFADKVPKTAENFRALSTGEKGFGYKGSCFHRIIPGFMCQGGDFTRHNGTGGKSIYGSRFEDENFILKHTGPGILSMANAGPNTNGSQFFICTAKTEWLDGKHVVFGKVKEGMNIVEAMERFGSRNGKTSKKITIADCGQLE
Summary of the method: as §1

[9] = target: T7, NKTR (Homo sapiens, UniProt P30414); assay type: biochemical
T7 construct: NKTR (UniProtKB Entry P30414: residues 7–179); host or cells: E. coli BL21(DE3)
T7 sequence (P30414 7-179): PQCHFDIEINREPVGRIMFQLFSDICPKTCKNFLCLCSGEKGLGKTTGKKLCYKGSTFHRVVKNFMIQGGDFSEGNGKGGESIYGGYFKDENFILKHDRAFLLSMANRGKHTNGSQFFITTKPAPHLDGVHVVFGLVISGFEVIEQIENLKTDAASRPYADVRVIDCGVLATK

[10] = target: T8, PPWD1 (Homo sapiens, UniProt Q96BP3); assay type: biochemical
T8 construct: PPWD1 (UniProtKB Entry Q96BP3: residues 473–646); host or cells: E. coli BL21(DE3)
T8 sequence (Q96BP3 473-646): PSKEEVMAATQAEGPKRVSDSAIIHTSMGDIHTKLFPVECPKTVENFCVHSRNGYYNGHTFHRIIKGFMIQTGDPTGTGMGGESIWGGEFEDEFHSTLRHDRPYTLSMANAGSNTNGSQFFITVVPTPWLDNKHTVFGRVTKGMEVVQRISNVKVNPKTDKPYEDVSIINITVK
Experimental: Five microliters of compound pre-dissolved in 5% DMSO/assay buffer was then added to appropriate wells and incubated at 2–3 °C for 5 min. Five microliters of 0.5 mM α-chymotrypsin from bovine pancreas (Type II, lyophilized powder, Millipore-Sigma) in 20% 1 mM HCl/Assay Buffer was then added to each well and incubated at 2–3 °C for 5 min. The plate was then quickly transferred to a FLIPR Tetra High-Throughput Cellular Screening System (Molecular Devices). Using the internal liquid handling system of the FLIPR, 1 µL 0.5 mM Suc-AAPF-AMC (Chymotrypsin Substrate II, Millipore-Sigma) dissolved in 0.55 M LiCl/2,2,2-trifluoroethanol was added to each well, which was then mixed for 5 s, followed by immediate fluorescence measurements every 1 s for 330 s using a 360–380 nm excitation LED module and a 400–460 nm emission filter. […] Raw fluorescence data was analyzed by non-linear regression analysis with Prism v.9 by fitting one-phase association curves to each well. Analyses were halted after the calculated maximum fluorescent value owing to observed fluorescent bleaching during the sustained fluorescent plateau. Rate constants calculated for each well (s^−1) were then normalized to substrate only (no prolyl-isomerase) and enzyme + substrate only controls.

[11] = IC50 CypD, Independent replicate 1, mean±SEM of 3 technical replicates
[12] = IC50 CypD, Independent replicate 2
[13] = IC50 CypD, Independent replicate 3
[14] = IC50 CypD, Independent replicate 4
[15] = IC50 Cyp40, Independent replicate 1
[16] = IC50 Cyp40, Independent replicate 2
[17] = IC50 Cyp40, Independent replicate 3
[18] = IC50 Cyp40, Independent replicate 4
[19] = Wild-Type Cyclophilin Prolyl Isomerase Inhibition IC50 Values, Cyp40, wild-type Cyp40
[20] = Independent replicate 1, read-out: IC50 NKTR
[21] = Independent replicate 2, read-out: IC50 NKTR
[22] = Independent replicate 3, read-out: IC50 NKTR
[23] = Independent replicate 4, read-out: IC50 NKTR
[24] = prolyl-isomerase inhibition, 5 nM cyclophilin, read-out: IC50 NKTR
[25] = wild-type NKTR, read-out: Wild-Type Cyclophilin Prolyl Isomerase Inhibition IC50 Values, NKTR
[26] = Independent replicate 1, read-out: IC50 PPWD1
[27] = Independent replicate 2, read-out: IC50 PPWD1
[28] = Independent replicate 3, read-out: IC50 PPWD1
[29] = Independent replicate 4, read-out: IC50 PPWD1
[30] = prolyl-isomerase inhibition, 5 nM cyclophilin, read-out: IC50 PPWD1
[31] = wild-type PPWD1, read-out: Wild-Type Cyclophilin Prolyl Isomerase Inhibition IC50 Values, PPWD1

| SMILES | IC50 [1] [nM] | IC50 [1, 11] [nM] | IC50 [1, 12] [nM] | IC50 [1, 13] [nM] | IC50 [1, 14] [nM] | selectivity for CypD against the remaining six cyclophilins [1] [fold] | selectivity for CypD over CypA [1] | selectivity for CypD over CypA and PPIL1 [1] | selectivity for CypD over CypE and CypB [1] | IC50 [2, 15] [nM] | IC50 [2, 16] [nM] | IC50 [2, 17] [nM] | IC50 [2, 18] [nM] | IC50 [2, 19] [nM] | IC50 [3] [nM] | IC50 [4] [nM] | IC50 [5] [nM] | IC50 [6] [nM] | IC50 [7] [nM] | IC50 [8] [nM] | further results |
| --- | --- | --- | --- | --- | --- | --- | --- | --- | --- | --- | --- | --- | --- | --- | --- | --- | --- | --- | --- | --- | --- |
| NCCOCCNC(=O)[C@@H]1CCNC(=O)/C=C/C(=O)N2CCC[C@](Cc3ccccc3)(C2)C(=O)N[C@@H](Cc2ccc(-c3ccc(CC(C(=O)O)C(=O)O)cc3)cc2)C(=O)NCc2ccccc2CC(=O)N1 [Compound B52] | 10 ± 4 | 10 ± 2 | 11 ± 4 | 11 ± 5 | 10 ± 5 | > 900 | > 100 fold and 100 fold | 60- to 900 fold | 15- to 30 fold | 13000 ± 5000 | 30000 ± 20000 | 20000 ± 10000 | 20000 ± 10000 | 22000 | 17 | 240 | 73 | 20 | 300 | 27 | IC50 ([1]; IC50 CypD, prolyl-isomerase inhibition): 10 nM; IC50 ([1]; Wild-Type Cyclophilin Prolyl Isomerase Inhibition IC50 Values, CypD, wild-type CypD): 10 nM; IC50 ([1]; read-out: IC50 CypD, prolyl-isomerase inhibition, 5 nM cyclophilin, Suc-AAPF-AMC, mean±s.e.m. of 3 technical replicates (B52, B53, C3A wild-type: mean±s.d. of 4 independent replicates)): 10 nM; IC50 [9, 20]: > 100000 nM; IC50 [9, 21]: > 100000 nM; IC50 [9, 22]: > 100000 nM; IC50 [9, 23]: > 100000 nM; IC50 [9, 24]: > 100000 nM; IC50 ([9]; prolyl-isomerase inhibition, read-out: IC50 NKTR): > 100000 nM; IC50 [9, 25]: > 100000 nM; IC50 [10, 26]: > 100000 nM; IC50 [10, 27]: > 100000 nM; IC50 [10, 28]: > 100000 nM; IC50 [10, 29]: > 100000 nM; IC50 [10, 30]: > 100000 nM; IC50 ([10]; prolyl-isomerase inhibition, read-out: IC50 PPWD1): > 100000 nM; IC50 [10, 31]: > 100000 nM |
| NCCOCCNC(=O)[C@@H]1CCNC(=O)/C=C/C(=O)N2CCC[C@](Cc3ccccc3)(C2)C(=O)N[C@@H](Cc2ccc(-c3ccc(C(CC(=O)O)CC(=O)O)cc3)cc2)C(=O)NCc2ccccc2CC(=O)N1 [Compound B53] | 57 | 40 ± 10 | 50 ± 20 | 60 ± 20 | 60 ± 30 | > 900 | > 100 fold and 100 fold | 60- to 900 fold | 15- to 30 fold | > 50000 | > 50000 | > 50000 | > 50000 | > 50000 | 32 | 800 | 900 | 100 | 4000 | 180 | IC50 ([2]; IC50 Cyp40, prolyl-isomerase inhibition, 5 nM cyclophilin): > 50000 nM; IC50 [9, 20]: > 50000 nM; IC50 [9, 21]: > 50000 nM; IC50 [9, 22]: > 50000 nM; IC50 [9, 23]: > 50000 nM; IC50 [9, 24]: > 50000 nM; IC50 [9, 25]: > 50000 nM; IC50 [10, 26]: > 50000 nM; IC50 [10, 27]: > 50000 nM; IC50 [10, 28]: > 50000 nM; IC50 [10, 29]: > 50000 nM; IC50 [10, 30]: > 50000 nM; IC50 [10, 31]: > 50000 nM |
